From ChEMBL document CHEMBL4616625, “The Medicinal Chemistry in the Era of Machines and Automation: Recent Advances in Continuous Flow Technology” (J Med Chem, 2020) come the findings set out here.

The target in one assay is Albumin (Homo sapiens, UniProt P02768). The experiment in a line: Binding affinity to albumin (unknown origin). It is filed as ADME.
Assay [1] addresses T1, Alpha-1B adrenergic receptor (Homo sapiens, UniProt P35368).
T1 sequence (P35368 whole entry): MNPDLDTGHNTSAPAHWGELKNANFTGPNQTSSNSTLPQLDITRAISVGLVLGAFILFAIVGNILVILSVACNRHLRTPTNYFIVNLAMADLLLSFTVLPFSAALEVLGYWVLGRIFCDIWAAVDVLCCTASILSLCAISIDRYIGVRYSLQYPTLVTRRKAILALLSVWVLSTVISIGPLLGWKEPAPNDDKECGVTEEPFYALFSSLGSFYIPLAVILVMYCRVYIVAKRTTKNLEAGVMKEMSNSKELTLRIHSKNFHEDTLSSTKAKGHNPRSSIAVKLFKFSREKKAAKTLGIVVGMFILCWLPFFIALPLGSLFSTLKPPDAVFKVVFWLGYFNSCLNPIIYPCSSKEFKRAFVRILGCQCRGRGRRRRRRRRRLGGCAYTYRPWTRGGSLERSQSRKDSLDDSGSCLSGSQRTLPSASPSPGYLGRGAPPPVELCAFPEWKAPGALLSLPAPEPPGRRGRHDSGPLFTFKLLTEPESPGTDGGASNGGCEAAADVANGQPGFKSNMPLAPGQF
Description: Inhibition of alpha1B adrenergic receptor (unknown origin).

Sequence of Albumin (P02768 whole entry): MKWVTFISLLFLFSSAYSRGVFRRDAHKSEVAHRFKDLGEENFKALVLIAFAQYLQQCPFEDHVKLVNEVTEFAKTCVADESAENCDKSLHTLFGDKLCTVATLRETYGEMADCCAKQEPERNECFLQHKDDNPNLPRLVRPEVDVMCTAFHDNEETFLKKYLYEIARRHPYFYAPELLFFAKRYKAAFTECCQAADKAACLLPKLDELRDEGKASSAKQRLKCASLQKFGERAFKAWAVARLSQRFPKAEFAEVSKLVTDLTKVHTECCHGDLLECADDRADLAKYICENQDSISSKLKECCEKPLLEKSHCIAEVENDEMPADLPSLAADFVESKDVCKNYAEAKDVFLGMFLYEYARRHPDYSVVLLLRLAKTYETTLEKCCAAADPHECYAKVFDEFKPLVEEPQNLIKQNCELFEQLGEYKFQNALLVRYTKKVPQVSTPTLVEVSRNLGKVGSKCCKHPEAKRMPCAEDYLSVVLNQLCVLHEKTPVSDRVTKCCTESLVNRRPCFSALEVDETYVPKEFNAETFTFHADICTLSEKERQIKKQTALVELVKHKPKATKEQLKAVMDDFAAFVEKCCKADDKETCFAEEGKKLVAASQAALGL

As for `CCCN(CCC)C(=O)Cc1c(-c2ccc(Cl)cc2)nc2ccc(Cl)cn12` [ALPIDEM], on Albumin, the Kd turned out to be 2000 nM. Same read-out and setting: the result for `Cc1ccc(-c2nc3ccc(C)cn3c2CC(=O)N(C)C)cc1` [ZOLPIDEM] reads 63000 nM. `COc1ccc(-c2nc3ccccn3c2NCCN2CCOCC2)c(OC)c1` registered a Ki in assay [1] of 2000 nM. This counts as single-digit micromolar.

For orientation: Kd means a measure of binding affinity in units of concentration. A lower Kd goes with tighter binding. What is called Ki is the equilibrium dissociation constant of an inhibitor or competing ligand from its target. Read a high Ki as lower affinity.
